These are literature values, as cited in paper PMC6510909 (Investigational New Drugs, 2018).

Like-named read-outs stand apart in the source and are kept apart here.

Data set [1] relates to patients with advanced/metastatic pancreatic cancer. More on the design: method as in earlier work. Particulars: JANUS-1 interim analysis; P = 0.409; cited from earlier work.
In data set [2] the test system is patients with metastatic pancreatic cancer that was refractory to gemcitabine. Further details: method as in PMID 26351344. Particulars: with capecitabine, cited from earlier work.
Data set [3] concerns patients with advanced/metastatic pancreatic cancer. More on the design: method as in earlier work. Particulars: JANUS-2 interim analysis; P = 0.942; cited from earlier work.
A further data set has as its system pancreatic cancer. The note with it: nab-P + G group, MPACT trial; cited from earlier work.

Consider `N#CC[C@H](C1CCCC1)n1cc(-c2ncnc3[nH]ccc23)cn1` [ruxolitinib], for which the “HR for OS, ruxolitinib vs placebo” value in data set [1] was 0.969 [95% CI, 0.75–1.26]; in data set [2] (overall study population, P = 0.25), 0.79 [95% CI, 0.53–1.18]; in data set [2] (subgroup with C-reactive peptide >13 mg/L, P = 0.011) it was 0.47 [95% CI, 0.26–0.85]; in data set [3], 1.584 [95% CI, 0.89–2.83].

With “albumin-bound paclitaxel + gemcitabine [nab-P + G]”, the “Median OS” value in the data set on pancreatic cancer is given as 8.5 months.
